The nature of series [1]: Cytotoxicity against African green monkey Vero cells assessed as reduction in cell viability after 72 hrs by MTS/PMS assay. Type of series: cell-based. The note with it: chlorocebus sabaeus.
Series [2] relates to Mycobacterium tuberculosis. In words: Antimycobacterial activity against Mycobacterium tuberculosis H37Rv measured after 1 week by resazurin assay. Type of series: functional. The note with it: 168 h. In general terms: Resazurin is reduced to fluorescent resorufin, in cell work by metabolically active cells.
Series [3] is described as follows: Intrinsic clearance in mouse liver microsomes. Type of series: ADME, microsome. Particulars: read-out: CLH.
The nature of series [4]: Half life in mouse liver microsomes. Type of series: ADME, microsome. (Liver microsomes are a subcellular fraction often used to study metabolism.)
A short description of series [5]: Selectivity index, ratio of CC50 for African green monkey Vero cells to MIC for Mycobacterium tuberculosis H37Rv. Type of series: toxicity. The note with it: read-out: Selectivity Index.

Values after ≈ are worked out from the molar mass of the structure shown. Bounds are passed on as bounds.

Broadly, the CC50 is the concentration at which the toxic effect on the cells reaches its halfway point. Usually MIC stands for the lowest concentration found to suppress growth. In general, half-life refers to the time needed for the level to fall by half in the phase considered. In the case of `CC(C)(C)C1CCc2c(sc3nc(SCc4ccc(C(=O)O)cc4[N+](=O)[O-])nc(N)c23)C1` (configuration not stated), in series [1], the cytotoxic concentration (CC50) at 72 h is above 50 µg/mL. In addition, in series [2], the minimum inhibitory concentration (MIC) lay in the range of 12.5 to 25 µg/mL (≈ 26.4 to 52.9 µM). In addition, the microsomal CLint in series [3] was determined as 5.8 µL/min/mg. In addition, in series [4], the half-life turned out to be 120 min.

As to `COc1ccc([N+](=O)[O-])cc1CSc1nc(N)c2c3c(sc2n1)CC(C(C)(C)C)CC3` (configuration not stated), in series [1], the CC50 at 72 h was 12.5 µg/mL (≈ 27.3 µM). Moreover, the MIC in series [2] is above 200 µg/mL. In addition, in series [3], the microsomal CLint is 7.9 µL/min/mg. The molecule further came in with a half-life in series [4] of 87.7 min.

`Cc1cc(CSc2nc(N)c3c4c(sc3n2)CC(C(C)(C)C)CC4)no1` (configuration not stated) returned a half-life in series [4] of 19 min.

As for `CC(C)(C)C1CCc2c(sc3nc(SCc4cc([N+](=O)[O-])ccc4O)nc(N)c23)C1` (configuration not stated), the CC50 at 72 h in series [1] was 50 µg/mL (≈ 112 µM). The MIC in series [2] is 200 µg/mL (≈ 450 µM). In addition, the microsomal CLint in series [3] stood at 11.9 µL/min/mg. This molecule yielded a half-life in series [4] of 58.2 min.

As for `Cc1ccc(CSc2nc(N)c3c4c(sc3n2)CC(C(C)(C)C)CC4)s1` (configuration not stated), in series [1], the half-maximal cytotoxic concentration (CC50) at 72 h turned out to be 12.5 µg/mL (≈ 31 µM). The molecule further registered an MIC in series [2] above 200 µg/mL. In addition, the microsomal CLint in series [3] turned out to be 21.8 µL/min/mg. This molecule also displayed a half-life in series [4] of 31.8 min.

On to `CC(C)(C)C1CCc2c(sc3nc(SCc4ccc([N+](=O)[O-])cc4)nc(N)c23)C1` (configuration not stated), for which the CC50 at 72 h in series [1] is above 50 µg/mL. The MIC in series [2] is above 200 µg/mL. Further, in series [3], the microsomal CLint came to 20.1 µL/min/mg. In series [4], this molecule returned a half-life of 34.3 min.

As to `Cc1nc(CSc2nc(N)c3c4c(sc3n2)CC(C(C)(C)C)CC4)sc1C` (configuration not stated), the half-maximal cytotoxic concentration (CC50) at 72 h in series [1] is 1.6 µg/mL (≈ 3.82 µM). Besides, the MIC in series [2] is 100 to 200 µg/mL (≈ 239 to 478 µM). In addition, in series [3], the microsomal CLint came out at 31.9 µL/min/mg. Besides, the half-life in series [4] came to 21.7 min.

With `Cn1nccc1CSc1nc(N)c2c3c(sc2n1)CC(C(C)(C)C)CC3` (configuration not stated), in series [1], the CC50 at 72 h is 100 µg/mL (≈ 258 µM). The MIC in series [2] worked out at 10 µg/mL (≈ 25.8 µM). In addition, the microsomal CLint in series [3] was 11.4 µL/min/mg. The selectivity ratio in series [5] turned out to be 10. Further, in series [4], the half-life worked out at 60.8 min.

Take `CC(C)(C)C1CCc2c(sc3nc(SCc4nccs4)nc(N)c23)C1` (configuration not stated): the half-life in series [4] worked out at 66.6 min.

As for `CCOC(=O)CSc1nc(N)c2c3c(sc2n1)CC(C(C)(C)C)CC3` (configuration not stated), the CC50 at 72 h in series [1] came out at 45 µg/mL (≈ 119 µM). The same molecule yielded an MIC in series [2] of 0.19 to 0.38 µg/mL (≈ 0.501 to 1 µM). Besides, the microsomal CLint in series [3] is above 1390 µL/min/mg. Also, in series [5], the selectivity ratio fell in the range of 120 to 240. The molecule further yielded a half-life in series [4] below 1 min.

Turning to `Cc1cccc(CSc2nc(N)c3c4c(sc3n2)CC(C(C)(C)C)CC4)n1` (configuration not stated), in series [1], the 50% cytotoxic concentration (CC50) at 72 h was 25 µg/mL (≈ 62.7 µM). In addition, in series [2], the MIC was above 200 µg/mL. In addition, in series [3], the microsomal CLint worked out at 40.8 µL/min/mg. Further, the half-life in series [4] was 17 min.

With `CC(C)(C)C1CCc2c(sc3nc(SCc4ccc5c(c4)OCO5)nc(N)c23)C1` (configuration not stated), the CC50 at 72 h in series [1] is above 50 µg/mL. This molecule also displayed a minimum inhibitory concentration (MIC) in series [2] above 200 µg/mL. The microsomal CLint in series [3] is 10.8 µL/min/mg. In addition, the half-life in series [4] worked out at 64.2 min.

Take `CC(C)(C)C1CCc2c(sc3nc(SCc4ccnn4C4CCCCO4)nc(N)c23)C1` (configuration not stated): the cytotoxic concentration (CC50) at 72 h in series [1] worked out at 6.2 µg/mL (≈ 13.5 µM). The same molecule showed an MIC in series [2] of 25 µg/mL (≈ 54.6 µM). Further, the microsomal CLint in series [3] amounted to 11.5 µL/min/mg. The molecule further showed a half-life in series [4] of 60.3 min.

`NNC(=O)c1ccncc1` [ISONIAZID] displayed an MIC in series [2] of 0.039 µg/mL (≈ 0.284 µM).

On to `CC(C)(C)C1CCc2c(sc3nc(SCc4cccc([N+](=O)[O-])c4)nc(N)c23)C1` (configuration not stated), for which the CC50 at 72 h in series [1] was above 200 µg/mL. In series [2], this molecule registered an MIC of 10 µg/mL (≈ 23.3 µM). Also, the microsomal CLint in series [3] turned out to be 14.6 µL/min/mg. The selectivity ratio in series [5] is above 20. In series [4], this molecule registered a half-life of 47.5 min.

Turning to `CC(C)(C)C1CCc2c(sc3nc(SCc4ccc(C(=O)O)cc4)nc(N)c23)C1` (configuration not stated), the CC50 at 72 h in series [1] was determined as 50 µg/mL (≈ 117 µM). The MIC in series [2] lay within 25 to 50 µg/mL (≈ 58.5 to 117 µM). Besides, the microsomal CLint in series [3] was 7.3 µL/min/mg. Further, the half-life in series [4] stood at 95 min.

`Cc1ccc(CSc2nc(N)c3c4c(sc3n2)CC(C(C)(C)C)CC4)o1` (configuration not stated): the CC50 at 72 h in series [1] came out at 3.1 µg/mL (≈ 8 µM). The same molecule yielded an MIC in series [2] of 200 µg/mL (≈ 516 µM). The microsomal CLint in series [3] came out at 35.1 µL/min/mg. Further, the half-life in series [4] stood at 19.7 min.

For the origin of these results see ChEMBL document CHEMBL4138138, “Addressing the Metabolic Stability of Antituberculars through Machine Learning” (ACS Med Chem Lett, 2017).
